Measured values: patent US20260345619A1 (Principia Biopharma Inc., priority 2023, published 2026)

Experiment: Loss of asthma control (LOAC) events, 12-week ICS/LABA withdrawal study
Format: in vivo, human
Source text: The general construct of this 12-week Loss of Asthma Control (LOAC) study consisted of a 4-week standardized ICS/LABA background therapy stabilization phase, a 4or 5-week background therapy withdrawal phase and a 3- or 4-week no background therapy phase, followed by a 4-week post IMP treatment safety follow-up period at the beginning of which, pre-screening asthma controller medications are restarted. Participants had access to short-acting β-agonist (SABA) reliever medication at all times during the protocol.
The primary endpoint was the proportion of patients with LOAC. The key secondary endpoint for the study was change in pre-bronchodilator FEV1 from baseline at EOT.
The primary endpoint was proportion of participants with LOAC during the 12-week treatment period.
Note that if the number of participants in some regions was too low, these regions may have been pooled with other regions. This strategy also applied to all the rest of the analyses where region was one of the covariates.
To assess the consistency in treatment effects across different subgroup levels, subgroup analyses were to be performed for the primary efficacy endpoint with respect to age group, gender, region, and other factors.
Secondary endpoints included pre-bronchodilator FEV1 change from baseline at EOT, ACQ-5 score change from baseline, and AQLQ score change from baseline. Other secondary and exploratory endpoints are described in Table 2.

[1] = 400 mg BID cohort, Latin America, n = 25
[2] = 400 mg BID cohort, N = 32, mITT
[3] = 400 mg BID cohort, age <45 years, n = 12
[4] = 400 mg BID cohort, age ≥45 years, n = 20
[5] = 400 mg BID cohort, baseline BMI <25 kg/m^2, n = 8
[6] = 400 mg BID cohort, baseline BMI ≥25-<30 kg/m^2, n = 16
[7] = 400 mg BID cohort, baseline BMI ≥30 kg/m^2, n = 8
[8] = 400 mg BID cohort, baseline weight ≥60-<90 kg, n = 23
[9] = 400 mg BID cohort, female, n = 18
[10] = 400 mg BID cohort, male, n = 14
[11] = 400 mg BID, N=32, 12 weeks, mITT
[12] = 400 mg BID, 1 exacerbation within 2 years
[13] = 400 mg BID, 2 exacerbations within 2 years
[14] = 400 mg BID, >2 exacerbations within 2 years
[15] = 400 mg BID, FEV1 reversibility <12 %
[16] = 400 mg BID, FEV1 reversibility ≥12 %
[17] = 400 mg BID, age at onset <12 years
[18] = 400 mg BID, age at onset <18 years
[19] = 400 mg BID, age at onset ≥12-<18 years
[20] = 400 mg BID, age at onset ≥18-<40 years

Compound: CC(C)(C=C(C#N)C(=O)N1CCC[C@@H](n2nc(-c3ccc(Oc4ccccc4)cc3F)c3c(N)ncnc32)C1)N1CCN(C2COC2)CC1 (mixture of isomers) [rilzabrutinib, (R)-2-[3-[4-amino-3-(2-fluoro-4-phenoxy-phenyl)pyrazolo[3,4-d]pyrimidin-1-yl]piperidine-1-carbonyl]-4-methyl-4-[4-(oxetan-3-yl)piperazin-1-yl]pent-2-enenitrile]
- LOAC incidence, number of participants (400 mg BID cohort, APAC, n = 2): 2
- LOAC incidence, percentage (400 mg BID cohort, APAC, n = 2): (100)
- LOAC incidence, number of participants (400 mg BID cohort, Eastern Europe, n = 3): 1
- LOAC OR vs. placebo (400 mg BID cohort, Eastern Europe, 95% CI (0.023, 11.088)): 0.500
- LOAC RD vs. placebo (400 mg BID cohort, Eastern Europe, 95% CI (−0.891, 0.558)): −0.167
- LOAC incidence, number of participants [1]: 9
- LOAC incidence, percentage [1]: (36.0)
- LOAC OR vs. placebo (400 mg BID cohort, Latin America, 95% CI (0.230, 2.230)): 0.716
- LOAC RD vs. placebo (400 mg BID cohort, Latin America, 95% CI (−0.351, 0.191)): −0.080
- Intervention discontinuation due to lack of efficacy or an AE related to asthma worsening, number [2]: 0
- Number of participants requiring hospitalization or emergency room visit [2]: 0
- Number of participants with LOAC: No [2]: 20
- Number of participants with LOAC: Yes [2]: 12
- Number of participants with increase in ICS ≥4 times the last prescribed ICS dose (or ≥50% of the prescribed ICS dose at baseline if background therapy withdrawal completed) [2]: 1
- Number of participants with ≥6 additional reliever puffs of salbutamol/albuterol or levosalbutamol/levalbuterol in a 24 hour period (compared with baseline) on 2 consecutive days [2]: 2
- Number of participants with ≥30% reduction from baseline in AM PEF on 2 consecutive days [2]: 6
- Participants with LOAC not triggered by use of rescue medication, number [2]: 6
- Participants with LOAC not triggered by use of rescue medication, percentage [2]: (18.8)
- Participants with LOAC triggered by use of rescue medication, number [2]: 6
- Participants with LOAC triggered by use of rescue medication, percentage [2]: (18.8)
- Percentage of participants with LOAC: No [2]: (62.5)
- Percentage of participants with LOAC: Yes [2]: (37.5)
- Percentage of participants with increase in ICS ≥4 times the last prescribed ICS dose (or ≥50% of the prescribed ICS dose at baseline if background therapy withdrawal completed) [2]: (3.1)
- Percentage of participants with ≥6 additional reliever puffs of salbutamol/albuterol or levosalbutamol/levalbuterol in a 24 hour period (compared with baseline) on 2 consecutive days [2]: (6.3)
- Percentage of participants with ≥30% reduction from baseline in AM PEF on 2 consecutive days [2]: (18.8)
- LOAC incidence, number of participants (400 mg BID cohort, Western Countries, n = 2): 0
- LOAC incidence, number of participants [3]: 6
- LOAC incidence, percentage [3]: (50.0)
- LOAC OR vs. placebo (400 mg BID cohort, age <45 years, 95% CI (0.342, 18.129)): 2.489
- LOAC RD vs. placebo (400 mg BID cohort, age <45 years, 95% CI (−0.266, 0.634)): 0.184
- LOAC incidence, number of participants [4]: 6
- LOAC incidence, percentage [4]: (30.0)
- LOAC OR vs. placebo (400 mg BID cohort, age ≥45 years, 95% CI (0.069, 1.023)): 0.266
- LOAC RD vs. placebo (400 mg BID cohort, age ≥45 years, 95% CI (−0.583, −0.007)): −0.295
- LOAC incidence, number of participants [5]: 3
- LOAC incidence, percentage [5]: (37.5)
- LOAC OR vs. placebo (400 mg BID cohort, baseline BMI <25 kg/m^2, 95% CI (0.033, 2.763)): 0.300
- LOAC RD vs. placebo (400 mg BID cohort, baseline BMI <25 kg/m^2, 95% CI (−0.796, 0.213)): −0.292
- LOAC incidence, number of participants [6]: 6
- LOAC incidence, percentage [6]: (37.5)
- LOAC OR vs. placebo (400 mg BID cohort, baseline BMI ≥25-<30 kg/m^2, 95% CI (0.168, 2.709)): 0.675
- LOAC RD vs. placebo (400 mg BID cohort, baseline BMI ≥25-<30 kg/m^2, 95% CI (−0.431, 0.240)): −0.096
- LOAC incidence, number of participants [7]: 3
- LOAC incidence, percentage [7]: (37.5)
- LOAC OR vs. placebo (400 mg BID cohort, baseline BMI ≥30 kg/m^2, 95% CI (0.107, 5.238)): 0.750
- LOAC RD vs. placebo (400 mg BID cohort, baseline BMI ≥30 kg/m^2, 95% CI (−0.536, 0.397)): −0.069
- LOAC incidence, number of participants (400 mg BID cohort, baseline weight <60 kg, n = 3): 0
- LOAC incidence, number of participants [8]: 10
- LOAC incidence, percentage [8]: (43.5)
- LOAC OR vs. placebo (400 mg BID cohort, baseline weight ≥60-<90 kg, 95% CI (0.366, 3.640)): 1.154
- LOAC RD vs. placebo (400 mg BID cohort, baseline weight ≥60-<90 kg, 95% CI (−0.244, 0.314)): 0.035
- LOAC incidence, number of participants (400 mg BID cohort, baseline weight ≥90 kg, n = 6): 2
- LOAC OR vs. placebo (400 mg BID cohort, baseline weight ≥90 kg, 95% CI (0.013, 4.729)): 0.250
- LOAC RD vs. placebo (400 mg BID cohort, baseline weight ≥90 kg, 95% CI (−0.987, 0.320)): −0.333
- LOAC incidence, number of participants [9]: 7
- LOAC incidence, percentage [9]: (38.9)
- LOAC OR vs. placebo (400 mg BID cohort, female, 95% CI (0.076, 1.263)): 0.311
- LOAC RD vs. placebo (400 mg BID cohort, female, 95% CI (−0.560, 0.045)): −0.258
- LOAC incidence, number of participants [10]: 5
- LOAC incidence, percentage [10]: (35.7)
- LOAC OR vs. placebo (400 mg BID cohort, male, 95% CI (0.173, 24.590)): 2.062
- LOAC RD vs. placebo (400 mg BID cohort, male, 95% CI (−0.420, 0.931)): 0.256
- participants without LOAC, number [11]: 20
- participants without LOAC, percent [11]: (62.5)
- participants with LOAC, number (400 mg BID, N=32, 12 weeks, mITT, placebo 16): 12
- RRR vs. placebo (%), LOAC (400 mg BID, mITT): 24.4%
- RR vs. placebo, LOAC (400 mg BID, mITT, 95% CI 0.433, 1.319): 0.756
- RD (risk difference) vs. placebo, LOAC (400 mg BID, mITT, 95% CI −0.361, 0.115): −0.123
- OR vs. placebo [12]: 1.218
- RD vs. Placebo [12]: 0.059
- LOAC, number [13]: 4
- OR vs. placebo [13]: 0.471
- RD vs. Placebo [13]: −0.199
- LOAC, number [14]: 3
- OR vs. placebo [14]: 0.508
- OR vs. placebo [15]: 0.611
- RD vs. Placebo [15]: −0.119
- LOAC, number [16]: 6
- OR vs. placebo [16]: 0.533
- RD vs. Placebo [16]: −0.156
- LOAC, number [17]: 4
- OR vs. placebo [17]: 2.000
- RD vs. Placebo [17]: 0.159
- OR vs. placebo [18]: 1.402
- RD vs. Placebo [18]: 0.126
- LOAC, number [19]: 1
- OR vs. placebo [19]: 0.250
- RD vs. Placebo [19]: −0.300
- LOAC, number [20]: 4
- OR vs. placebo [20]: 0.267
